ChEMBL document CHEMBL1201862, “PubChem BioAssay data set” (2004)
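How tested: cells in 96-well plates exposed to compound for 48 hours at five concentrations. Here, GI50 denotes the concentration required for 50% inhibition of growth.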 The source made the active and inactive calls. Rule as the data show it: active = GI50 up to about 1.1 µM and inactive = higher.

What was measured:
Experiment in all cases: NCI-60 cell line screen, 48 h
786-0 = tested on: 786-0
ACHN = tested on: ACHN
EKVX = tested on: EKVX
HCT-116 = tested on: HCT-116
HL-60 = tested on: HL-60
HOP-62 = tested on: HOP-62
HOP-92 = tested on: HOP-92
IGROV-1 = tested on: IGROV-1
K562 = tested on: K562
KM12 = tested on: KM12
M14 = tested on: M14
NCI-H226 = tested on: NCI-H226
NCI-H23 = tested on: NCI-H23
OVCAR-4 = tested on: OVCAR-4
OVCAR-8 = tested on: OVCAR-8
RXF 631 = tested on: RXF 631
SN12C = tested on: SN12C
SNB-19 = tested on: SNB-19

**Q.** With `COc1cc(/C=C/C(=N\NC(=O)c2ccccc2)c2sc(Nc3ccc(Cl)c(Cl)c3)nc2C)ccc1O` as the compound, how does the GI50 (786-0) read?
**A.** 41.2 µM (inactive)

**Q.** What about the GI50 (ACHN) of the same compound?
**A.** 26.8 µM (inactive)

**Q.** And the GI50 (EKVX)?
**A.** 29.6 µM (inactive)

**Q.** And the GI50 (HCT-116)?
**A.** 28.2 µM (inactive)

**Q.** And the GI50 (HL-60)?
**A.** 16.1 µM (inactive)

**Q.** And the GI50 (HOP-62)?
**A.** 38.4 µM (inactive)

**Q.** And the GI50 (HOP-92)?
**A.** < 0.01 µM (active)

**Q.** And the GI50 (IGROV-1)?
**A.** 35.6 µM (inactive)

**Q.** And the GI50 (K562)?
**A.** 25.2 µM (inactive)

**Q.** What about the GI50 (KM12) of the same compound?
**A.** 30.5 µM (inactive)

**Q.** And the GI50 (M14)?
**A.** 31 µM (inactive)

**Q.** And the GI50 (NCI-H226)?
**A.** 20.5 µM (inactive)

**Q.** What about the GI50 (NCI-H23) of the same compound?
**A.** 25.7 µM (inactive)

**Q.** And the GI50 (OVCAR-4)?
**A.** 33.4 µM (inactive)

**Q.** And the GI50 (OVCAR-8)?
**A.** 33.3 µM (inactive)

**Q.** And the GI50 (RXF 631)?
**A.** 20.6 µM (inactive)

**Q.** What about the GI50 (SN12C) of the same compound?
**A.** 33 µM (inactive)

**Q.** And the GI50 (SNB-19)?
**A.** 31.6 µM (inactive)

**Q.** `O=C1CCC(O)=C1O` was tested. Which GI50 (786-0) did it give?
**A.** > 100 µM (inactive)

**Q.** What about the GI50 (ACHN) of the same compound?
**A.** > 100 µM (inactive)

**Q.** And the GI50 (EKVX)?
**A.** > 100 µM (inactive)

**Q.** And the GI50 (HCT-116)?
**A.** > 100 µM (inactive)

**Q.** And the GI50 (HL-60)?
**A.** > 100 µM (inactive)

**Q.** And the GI50 (HOP-62)?
**A.** > 100 µM (inactive)

**Q.** And the GI50 (HOP-92)?
**A.** > 100 µM (inactive)

**Q.** And the GI50 (IGROV-1)?
**A.** > 100 µM (inactive)

**Q.** What about the GI50 (K562) of the same compound?
**A.** > 100 µM (inactive)

**Q.** What about the GI50 (KM12) of the same compound?
**A.** > 100 µM (inactive)

**Q.** And the GI50 (M14)?
**A.** > 100 µM (inactive)

**Q.** What about the GI50 (NCI-H226) of the same compound?
**A.** > 100 µM (inactive)

**Q.** What about the GI50 (NCI-H23) of the same compound?
**A.** > 100 µM (inactive)

**Q.** What about the GI50 (OVCAR-4) of the same compound?
**A.** > 100 µM (inactive)

**Q.** What about the GI50 (OVCAR-8) of the same compound?
**A.** > 100 µM (inactive)

**Q.** What about the GI50 (RXF 631) of the same compound?
**A.** > 100 µM (inactive)

**Q.** What about the GI50 (SN12C) of the same compound?
**A.** > 100 µM (inactive)

**Q.** And the GI50 (SNB-19)?
**A.** > 100 µM (inactive)

**Q.** Which results are given for `Cc1nnc(N/N=C(/C(=O)C(C#N)c2ccc(Cl)cc2)C(C#N)c2ccc(Cl)cc2)n1N` (centres undefined)?
**A.** GI50 (786-0): 17.4 µM (inactive); GI50 (ACHN): 15.9 µM (inactive); GI50 (EKVX): > 10 µM (inactive); GI50 (HL-60): 22.5 µM (inactive); GI50 (HOP-62): 16.6 µM (inactive); GI50 (HOP-92): > 100 µM (inactive); GI50 (K562): 17.5 µM (inactive); GI50 (KM12): 18.7 µM (inactive); GI50 (M14): 20.7 µM (inactive); GI50 (NCI-H226): 16.1 µM (inactive); GI50 (NCI-H23): 17.8 µM (inactive); GI50 (OVCAR-4): 18.1 µM (inactive); GI50 (OVCAR-8): 20 µM (inactive); GI50 (RXF 631): 19.8 µM (inactive); GI50 (SN12C): 19.3 µM (inactive); GI50 (SNB-19): 14.6 µM (inactive)

**Q.** Which results are given for `CCCCCCCCCC1CC(=O)Oc2cccc(O)c21` (centres undefined)?
**A.** GI50 (786-0): 10.1 µM (inactive); GI50 (ACHN): 30.3 µM (inactive); GI50 (EKVX): 40.7 µM (inactive); GI50 (HCT-116): 36.2 µM (inactive); GI50 (HL-60): 27.9 µM (inactive); GI50 (HOP-62): 34.3 µM (inactive); GI50 (HOP-92): 34 µM (inactive); GI50 (IGROV-1): 20.9 µM (inactive); GI50 (K562): 24 µM (inactive); GI50 (KM12): 12.5 µM (inactive); GI50 (M14): 22.7 µM (inactive); GI50 (NCI-H226): 6.84 µM (inactive); GI50 (NCI-H23): 3.31 µM (inactive); GI50 (OVCAR-4): 33.7 µM (inactive); GI50 (OVCAR-8): 31.8 µM (inactive); GI50 (RXF 631): 0.617 µM (active); GI50 (SN12C): 6.85 µM (inactive); GI50 (SNB-19): 3.7 µM (inactive)

**Q.** With `O=C(CO)CC(=O)C(=O)Nc1ccccc1` as the compound, how does the GI50 (786-0) read?
**A.** > 100 µM (inactive)

**Q.** What about the GI50 (ACHN) of the same compound?
**A.** > 100 µM (inactive)

**Q.** What about the GI50 (EKVX) of the same compound?
**A.** > 100 µM (inactive)

**Q.** And the GI50 (HCT-116)?
**A.** > 100 µM (inactive)

**Q.** And the GI50 (HL-60)?
**A.** > 100 µM (inactive)

**Q.** What about the GI50 (HOP-62) of the same compound?
**A.** > 100 µM (inactive)

**Q.** And the GI50 (HOP-92)?
**A.** > 100 µM (inactive)

**Q.** And the GI50 (IGROV-1)?
**A.** > 100 µM (inactive)

**Q.** What about the GI50 (K562) of the same compound?
**A.** > 100 µM (inactive)

**Q.** What about the GI50 (KM12) of the same compound?
**A.** > 100 µM (inactive)

**Q.** What about the GI50 (M14) of the same compound?
**A.** > 100 µM (inactive)

**Q.** And the GI50 (NCI-H226)?
**A.** > 100 µM (inactive)

**Q.** And the GI50 (NCI-H23)?
**A.** > 100 µM (inactive)

**Q.** What about the GI50 (OVCAR-4) of the same compound?
**A.** > 100 µM (inactive)

**Q.** What about the GI50 (OVCAR-8) of the same compound?
**A.** > 100 µM (inactive)

**Q.** And the GI50 (RXF 631)?
**A.** 46 µM (inactive)

**Q.** What about the GI50 (SN12C) of the same compound?
**A.** > 100 µM (inactive)

**Q.** And the GI50 (SNB-19)?
**A.** > 100 µM (inactive)

**Q.** What does the source list for `CCCCCCCCCCCCCCCC(=O)OCC1OC(n2cc(F)c(=O)[nH]c2=O)C(NC(=O)OCc2ccccc2)C(O)C1O` (centres undefined)?
**A.** GI50 (786-0): 18.7 µM (inactive); GI50 (ACHN): 34.1 µM (inactive); GI50 (EKVX): 22 µM (inactive); GI50 (HCT-116): 16.6 µM (inactive); GI50 (HL-60): 20.2 µM (inactive); GI50 (HOP-92): 15.9 µM (inactive); GI50 (IGROV-1): 20.9 µM (inactive); GI50 (K562): 14.5 µM (inactive); GI50 (KM12): 20.8 µM (inactive); GI50 (M14): 17 µM (inactive); GI50 (NCI-H23): 18.5 µM (inactive); GI50 (OVCAR-4): 20 µM (inactive); GI50 (OVCAR-8): 17.7 µM (inactive); GI50 (RXF 631): 18.3 µM (inactive); GI50 (SN12C): 19.9 µM (inactive); GI50 (SNB-19): 16.8 µM (inactive)
